Values of other authors as cited in patent publication US12263173B2, “PLK1 inhibitor in combination with anti-angiogenics for treating metastatic cancer” (CARDIFF ONCOLOGY, INC., priority 2022, dated 2025).
Like-named read-outs stand apart in the source and are kept apart here.

Tests used:
[1] = biological target: PLK1 (Homo sapiens, UniProt P53350)
[2] = test system: disseminated model of AML
[3] = test system: AML cell lines
[4] = test system: xenograft models
[5] = test system: patients with advanced/metastatic solid tumors; details: reversible
[6] = test system: HT29 human colon adenocarcinoma xenografts; details: in combination with irinotecan
[7] = test system: patients with AML; details: in combination with LDAC
[8] = test system: patients with AML who were treatment naïve yet unsuitable for induction therapy; details: administered intravenously in combination with LDAC
[9] = test system: patients with and without prior bevacizumab treatment; details: second line
[10] = bev naïve (without prior bevacizumab)

Chain of PLK1 (P53350 whole entry): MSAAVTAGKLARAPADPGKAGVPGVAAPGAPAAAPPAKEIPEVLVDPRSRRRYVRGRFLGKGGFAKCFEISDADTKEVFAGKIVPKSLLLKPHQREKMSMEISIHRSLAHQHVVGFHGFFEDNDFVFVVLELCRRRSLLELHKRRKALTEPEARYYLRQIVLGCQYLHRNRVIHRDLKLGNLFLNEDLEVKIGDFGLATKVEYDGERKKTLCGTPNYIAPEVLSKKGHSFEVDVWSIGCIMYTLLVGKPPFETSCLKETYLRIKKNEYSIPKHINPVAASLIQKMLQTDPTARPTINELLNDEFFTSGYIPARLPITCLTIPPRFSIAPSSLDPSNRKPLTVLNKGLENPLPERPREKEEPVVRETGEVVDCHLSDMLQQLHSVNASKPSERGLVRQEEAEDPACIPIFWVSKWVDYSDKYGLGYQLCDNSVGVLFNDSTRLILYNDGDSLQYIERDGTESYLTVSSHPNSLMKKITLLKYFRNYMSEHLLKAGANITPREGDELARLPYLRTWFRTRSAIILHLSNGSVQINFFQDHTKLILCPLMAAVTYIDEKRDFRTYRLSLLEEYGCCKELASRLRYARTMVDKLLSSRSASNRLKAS

**Q.** Which results are given for `CN1CCN(c2ccc(OC(F)(F)F)c(Nc3ncc4c(n3)-c3c(c(C(N)=O)nn3CCO)CC4)c2)CC1` [onvansertib, 1-(2-hydroxyethyl)-8-{[5-(4-methylpiperazin-1-yl)-2-(trifluoromethoxy)phenyl]amino}-4,5-dihydro-1H-pyrazolo[4,3-h]quinazoline-3-carboxamide]?
**A.** specificity for PLK1 ([1]; among a panel of 296 kinases, including other PLK members): high specificity; potency and specificity for the PLK1 isozyme versus volasertib ([1]; compared with volasertib (BI6727)): higher degree of potency and specificity; survival of animals ([2]; in combination therapy with cytarabine): prolonged survival; effect on cytarabine antitumor activity ([2]; in combination with cytarabine): significantly increased; inhibition of cell proliferation [3]: nanomolar concentrations; xenograft tumor growth ([4]; well tolerated doses in mice after oral administration): inhibits xenograft tumor growth; tumor growth ([4]; xenograft models of AML): inhibited; recovery of hematologic toxicities [5]: ≤ 3 weeks; tumor regression compared to each agent alone [6]: enhanced tumor regression

**Q.** With `CC[C@@H]1C(=O)N(C)c2cnc(Nc3ccc(C(=O)N[C@H]4CC[C@H](N5CCN(CC6CC6)CC5)CC4)cc3OC)nc2N1C(C)C` [volasertib] as the molecule, how does the “benefit of the combination” value [7] read?
**A.** no benefit

**Q.** And the “OS compared with LDAC alone” value [8]?
**A.** significant increase in OS

**Q.** Which mOS [9, 10] does the source give for “bev: anti-angiogenics (angiogenesis inhibitor), Avastin” here?
**A.** 13.9 months

**Q.** And the mPFS [9, 10]?
**A.** 6.9 months

**Q.** And the mOS ([9]; prior bev)?
**A.** 12.5 months

**Q.** And the mPFS ([9]; prior bev)?
**A.** 6.7 months
